Test results taken from patent US20260176300A1, “N-ARYLPYRAZOLE NOD2 AGONISTS AS PROMOTERS OF IMMUNE CHECKPOINT INHIBITOR THERAPY” (THE SCRIPPS RESEARCH INSTITUTE, priority 2022, published 2026).

Biological target: T1, NOD2 (Homo sapiens, UniProt Q9HC29)
T1 construct: host or cells: HEK-293T-derived HEK-Blue NF-kB/SEAP reporter cells
Assay: NOD2-HEK-Blue NF-κB reporter cell activation assay (NOD2-expressing HEK-293T cells)
Type: cell-based
Conditions: for EC50: calculated, three-parameter dose-response nonlinear regression, read-out: pEC50 (μM), dose-dependent activation of NOD2-expressing HEK-293T cells (converted); for NOD2 activation, result in words in the pEC50 column: Table 1; for Potency in structure-activity comparison: relative to TT007, FIG. 2B, 2D, 2F, 6E; for Activity after N-methylation on Val: TT018 vs. TT019, TT010 vs. TT020, TT011 vs. TT021, FIG. 2C; for Activation of NOD2-expressing HEK-293T cells, colorimetric assay: 10 µM, 16 h (FIG. 1E)
From the text: FIG. 1(A-F). Virtual screening for small molecule NOD2 agonists. A, Docked structure of muramyl dipeptide (MDP) in the leucine-rich repeat (LRR) domain of rabbit NOD2 (pdb 5IRM). […] B, Results of virtual docking approach with reported chemical structures related to MDP. C, Workflow of virtual screening in which a library was generated using carboxylic acids appended to the L-Val-D-Glu dipeptide and then docked to the NOD2 LRR domain. D, Desmuramyl MDP (dMDP) structures resulting from the virtual screen that were synthesized for further screening. Chemicals shown as a pure enantiomer were synthesized as a racemic mixture. E, Activation of NOD2-expressing HEK-293T cells treated for 16 h with 10 µM of the indicated compound using a colorimetric assay. F, Dose-dependent activation of NOD2-expressing HEK-293T cells using the indicated compounds. Numbers in parentheses represent calculated negative log of the half maximal effective concentration (pEC50) values. NOD activation assays were analyzed using a one-way ANOVA with Dunnett's multiple comparisons test compared to the DMSO control. pEC50 values were derived by a three-parameter dose-response nonlinear regression. ****P<0.0001.
FIG. 2(A-G). Structure-activity relationship studies of 3,5-dimethyl-N-arylpyrazole NOD2 agonists. A, Structures of 3,5-dimethyl-N-arylpyrazole structures synthesized for SAR studies. B-F, Dose-dependent activation of NOD2-expressing HEK-293T cells using the indicated compounds grouped by similar structural perturbations. Numbers in parentheses represent calculated pEC50 values. G, Graph of calculated pEC50 values vs. calculated partition coefficient (clogP). Dotted lines show equivalent lipophilic ligand efficiency (LLE) values. Red arrow indicates optimization of the TT007 scaffold to TT030. pEC50 values were derived by a three-parameter dose-response nonlinear regression.
Cell culture. The following cell lines were used and sourced as follows: HEK-Blue NOD2 (InvivoGen, hkb-hnod2), HEK-Blue NOD1 (InvivoGen, hkb-nod1), HEK-Blue Null2 (hkb-null2), and B16-F10 (ATCC CRL-6475). All cell lines were cultured at 37° C. in 5% CO2 in DMEM (ThermoFisher, 11995065) supplemented with 10% fetal bovine serum (FBS), 100 U mL-1 penicillin, and 100 μg mL-1 streptomycin. Cells were maintained at no greater than 70% confluency and subcultured using TrypLE Express. Cell lines were routinely cultured without antibiotics to ensure no bacterial infection and tested for mycoplasma using a Universal Mycoplasma Detection Kit (ATCC 30-1012K). Primary human peripheral mononuclear blood cells (PBMCs) were cultured at 37° C. in 5% CO2 in RPMI 1640 (ThermoFisher, 61870143) supplemented with 10% FBS. All experimental work using human samples was reviewed and approved by the Scripps Research Institutional Review Board (Protocol IRB-21-7816NOD2).
Reporter cell line activation assay. Approximately 24 h before the assay, culture medium for each of the HEK-Blue reporter cell lines was replaced with a 1:1 mixture of DMEM supplemented with 10% FBS and OptiMEM. On the day of the assay, single cell suspensions (150,000 cells/mL) were produced in HEK-Blue detection medium (InvivoGen, hb-det2). Cells were aliquoted at 200 μL per well of a 96-well plate containing 0.2 μL of a 1000× stock of each test compound in DMSO. Cells were then incubated at 37° C. in 5% CO2 for 8-10 h. To measure activity, wells were then gently pipetted up and down to mix the conditioned medium, and absorbance from the colorimetric product of the secreted alkaline phosphatase was measured at 630 nm. In some assays, cells were stimulated for 16 h with compounds as described above in complete DMEM. Then, 20 μL of the conditioned medium was mixed with 180 μL QUANTI-Blue solution (InvivoGen, rep-qbs) and incubated for 2-4 h at 37° C. Activity was then measured by absorbance as described above.

T1 sequence (Q9HC29 whole entry): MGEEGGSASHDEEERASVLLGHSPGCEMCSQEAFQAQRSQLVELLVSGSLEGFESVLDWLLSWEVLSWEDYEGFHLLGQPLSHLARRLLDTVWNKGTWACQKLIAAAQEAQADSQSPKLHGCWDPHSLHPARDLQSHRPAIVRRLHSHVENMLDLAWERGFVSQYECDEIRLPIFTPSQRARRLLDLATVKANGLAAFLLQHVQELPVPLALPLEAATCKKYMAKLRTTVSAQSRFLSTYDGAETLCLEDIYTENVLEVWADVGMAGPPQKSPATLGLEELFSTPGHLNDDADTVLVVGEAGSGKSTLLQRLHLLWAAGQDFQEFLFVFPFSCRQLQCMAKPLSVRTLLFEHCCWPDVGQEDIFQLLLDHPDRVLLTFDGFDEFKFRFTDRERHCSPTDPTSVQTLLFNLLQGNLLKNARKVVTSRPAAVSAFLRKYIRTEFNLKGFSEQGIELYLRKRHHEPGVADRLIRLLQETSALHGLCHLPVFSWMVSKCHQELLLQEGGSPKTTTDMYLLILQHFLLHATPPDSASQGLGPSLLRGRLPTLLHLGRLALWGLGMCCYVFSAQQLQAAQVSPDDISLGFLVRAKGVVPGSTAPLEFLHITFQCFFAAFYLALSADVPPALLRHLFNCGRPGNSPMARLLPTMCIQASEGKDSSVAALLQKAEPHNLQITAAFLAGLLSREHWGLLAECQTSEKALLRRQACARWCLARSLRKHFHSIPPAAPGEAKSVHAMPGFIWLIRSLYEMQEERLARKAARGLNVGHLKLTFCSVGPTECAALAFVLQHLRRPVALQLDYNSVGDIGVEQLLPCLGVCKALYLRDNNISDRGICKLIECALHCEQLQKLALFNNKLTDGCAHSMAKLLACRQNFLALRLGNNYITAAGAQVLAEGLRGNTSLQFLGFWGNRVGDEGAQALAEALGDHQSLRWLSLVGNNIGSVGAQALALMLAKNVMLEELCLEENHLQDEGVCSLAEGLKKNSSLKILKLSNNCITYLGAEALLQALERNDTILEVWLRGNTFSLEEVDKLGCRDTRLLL

| Compound | EC50 [µM] | also measured |
| --- | --- | --- |
| CCOC(=O)CC[C@@H](NC(=O)[C@@H](NC(=O)c1cnn(-c2ccncc2)c1C)C(C)C)C(=O)OCC [TT016, Diethyl (5-methyl-1-(pyridin-4-yl)-1H-pyrazole-4-carbonyl)-L-valyl-D-glutamate] | 79.4 |  |
| CCOC(=O)CC[C@@H](NC(=O)[C@@H](NC(=O)[C@@H]1C[C@H]1c1ccc(Cl)c(Cl)c1)C(C)C)C(=O)OCC (racemic) [TT004, Diethyl (rac-(1R,2R)-2-(3,4-dichlorophenyl)cyclopropane-1-carbonyl)-L-valyl-D-glutamate] |  | NOD2 activation, result in words in the pEC50 column: Active |
| CCOC(=O)CC[C@@H](NC(=O)[C@@H](NC(=O)c1cnn(-c2cccnc2)c1)C(C)C)C(=O)OCC [TT037, diethyl (1-(pyridin-3-yl)-1H-pyrazole-4-carbonyl)-L-valyl-D-glutamate] | 5.01 |  |
| CCOC(=O)CC[C@@H](NC(=O)[C@@H](NC(=O)c1c(C)nn(-c2cccc(OC)c2)c1C)C(C)C)C(=O)OCC [TT036, Diethyl (1-(3-methoxyphenyl)-3,5-dimethyl-1H-pyrazole-4-carbonyl)-L-valyl-D-glutamate] | 2.51 |  |
| CCOC(=O)CC[C@@H](NC(=O)[C@@H](NC(=O)c1c(C)nn(-c2ccc(N)nc2)c1C)C(C)C)C(=O)OCC [TT026, Diethyl (1-(6-aminopyridin-3-yl)-3,5-dimethyl-1H-pyrazole-4-carbonyl)-L-valyl-D-glutamate] | 0.501 |  |
| CCOC(=O)CC[C@@H](NC(=O)[C@@H](NC(=O)c1c(C)nn(-c2cccnc2)c1C)C(C)C)C(=O)OCC [TT033, Diethyl (3,5-dimethyl-1-(pyridin-3-yl)-1H-pyrazole-4-carbonyl)-L-valyl-D-glutamate] | 2.51 |  |
| CCOC(=O)CC[C@@H](NC(=O)[C@@H](NC(=O)c1cnn(-c2ccc(F)cc2)c1C(C)C)C(C)C)C(=O)OCC [TT012, Diethyl (1-(4-fluorophenyl)-5-isopropyl-1H-pyrazole-4-carbonyl)-L-valyl-D-glutamate] | 31.6 | Potency in structure-activity comparison: did not compensate the lack of the other substituent |
| CCOC(=O)CC[C@@H](NC(=O)[C@@H](NC(=O)c1c(C)nn(-c2ccccc2OC)c1C)C(C)C)C(=O)OCC [TT035, Diethyl (1-(2-methoxyphenyl)-3,5-dimethyl-1H-pyrazole-4-carbonyl)-L-valyl-D-glutamate] | 1.58 |  |
| CCOC(=O)CC[C@@H](NC(=O)[C@@H](NC(=O)c1c(C)nn(-c2ccccn2)c1C)C(C)C)C(=O)OCC [TT032, Diethyl (3,5-dimethyl-1-(pyridin-2-yl)-1H-pyrazole-4-carbonyl)-L-valyl-D-glutamate] | 1.58 |  |
| CCOC(=O)CC[C@@H](NC(=O)[C@@H](NC(=O)c1cnn(-c2ccc(F)cc2)c1C)C(C)C)C(=O)OCC [TT010, Diethyl (1-(4-fluorophenyl)-5-methyl-1H-pyrazole-4-carbonyl)-L-valyl-D-glutamate] | 39.8 | Potency in structure-activity comparison: reduced potency by up to two orders of magnitude |
| C#CCCC1(CC(=O)N[C@H](C(=O)N[C@H](CCC(=O)OCC)C(=O)OCC)C(C)C)N=N1 [x-alk-VE] | 1.58 |  |
| CCOC(=O)CC[C@@H](NC(=O)[C@H](C(C)C)N(C)C(=O)c1cnn(-c2ccc(F)cc2)c1C)C(=O)OCC [TT020, Diethyl N-(1-(4-fluorophenyl)-5-methyl-1H-pyrazole-4-carbonyl)-N-methyl-L-valyl-D-glutamate] |  | Activity after N-methylation on Val: abolished the activity |
| CCOC(=O)CC[C@@H](NC(=O)[C@@H](NC(=O)c1cn(-c2ccc(F)cc2)nc1C)C(C)C)C(=O)OCC [TT011, Diethyl (1-(4-fluorophenyl)-3-methyl-1H-pyrazole-4-carbonyl)-L-valyl-D-glutamate] | 10 | Potency in structure-activity comparison: reduced potency by up to two orders of magnitude |
| CCOC(=O)CC[C@@H](NC(=O)[C@@H](NC(=O)c1cn(-c2ccc(F)cc2)nc1-c1cccc(C)c1)C(C)C)C(=O)OCC [TT009, Diethyl (1-(4-fluorophenyl)-3-(m-tolyl)-1H-pyrazole-4-carbonyl)-L-valyl-D-glutamate] |  | Activation of NOD2-expressing HEK-293T cells, colorimetric assay: inactive; Potency in structure-activity comparison: did not compensate the lack of the other substituent |
| CCOC(=O)CC[C@@H](NC(=O)[C@@H](NC(=O)/C=C/c1ccc(F)cc1)C(C)C)C(=O)OCC [TT002, Diethyl ((E)-3-(4-fluorophenyl)acryloyl)-L-valyl-D-glutamate] |  | NOD2 activation, result in words in the pEC50 column: Active |
| CCOC(=O)CC[C@@H](NC(=O)[C@@H](NC(=O)c1cn(-c2ccc(C)cc2)nc1C)C(C)C)C(=O)OCC [TT013, Diethyl (3-methyl-1-(p-tolyl)-1H-pyrazole-4-carbonyl)-L-valyl-D-glutamate] | 10 |  |
| CCOC(=O)CC[C@@H](NC(=O)[C@@H](NC(=O)c1cn(-c2ccccc2)nc1-c1cccc(C)c1)C(C)C)C(=O)OCC [TT008, Diethyl (1-phenyl-3-(m-tolyl)-1H-pyrazole-4-carbonyl)-L-valyl-D-glutamate] |  | Activation of NOD2-expressing HEK-293T cells, colorimetric assay: inactive |
| CCOC(=O)CC[C@@H](NC(=O)[C@@H](NC(=O)C(C)Cc1ccc(F)c(F)c1)C(C)C)C(=O)OCC (mixture of isomers) [TT005, Diethyl (3-(3,4-difluorophenyl)-2-methylpropanoyl)-L-valyl-D-glutamate] | 0.631 |  |
| CCOC(=O)CC[C@@H](NC(=O)[C@@H](NC(=O)c1c(C)nn(-c2ccc(NC(=O)OC(C)(C)C)nc2)c1C)C(C)C)C(=O)OCC [TT027, Diethyl (1-(6-((tert-butoxycarbonyl)amino)pyridin-3-yl)-3,5-dimethyl-1H-pyrazole-4-carbonyl)-L-valyl-D-glutamate] | 0.158 |  |
| CCOC(=O)CC[C@@H](NC(=O)[C@H](C(C)C)N(C)C(=O)c1c(C)nn(-c2ccccc2)c1C)C(=O)OCC [TT019, Diethyl N-(3,5-dimethyl-1-phenyl-1H-pyrazole-4-carbonyl)-N-methyl-L-valyl-D-glutamate] |  | Activity after N-methylation on Val: abolished the activity |
| CCOC(=O)CC[C@@H](NC(=O)[C@@H](NC(=O)c1c(C)nn(-c2ccc(Cl)c(Cl)c2)c1C)C(C)C)C(=O)OCC [TT022, Diethyl (1-(3,4-dichlorophenyl)-3,5-dimethyl-1H-pyrazole-4-carbonyl)-L-valyl-D-glutamate] | 1.26 | Potency in structure-activity comparison: slight increase |
| CCOC(=O)CC[C@@H](NC(=O)[C@@H](NC(=O)c1c(C)nn(-c2ccc(Cl)cc2)c1C)C(C)C)C(=O)OCC [TT024, Diethyl (1-(4-chlorophenyl)-3,5-dimethyl-1H-pyrazole-4-carbonyl)-L-valyl-D-glutamate] | 1 | Potency in structure-activity comparison: did not yield compounds with appreciable differences in potency |
| CCOC(=O)CC[C@@H](NC(=O)[C@@H](NC(=O)c1c(C)nn(-c2ccc3cc[nH]c3c2)c1C)C(C)C)C(=O)OCC [TT025, Diethyl (1-(1H-indol-6-yl)-3,5-dimethyl-1H-pyrazole-4-carbonyl)-L-valyl-D-glutamate] | 0.158 |  |
| CCOC(=O)CC[C@@H](NC(=O)[C@H](C(C)C)N(C)C(=O)c1cn(-c2ccc(F)cc2)nc1C)C(=O)OCC [TT021, Diethyl N-(1-(4-fluorophenyl)-3-methyl-1H-pyrazole-4-carbonyl)-N-methyl-L-valyl-D-glutamate] |  | Activity after N-methylation on Val: abolished the activity |
